Marks after values point to notes of the source that are not given here. Blank lines part the entries; values can stand above or below the molecule they belong to.
Legend:
FKBP12 = FKBP12 (Homo sapiens, UniProt P62942); assay: Ki test: inhibition of peptidyl-prolyl isomerase (rotamase) activity, chymotrypsin-coupled assay; assay type: biochemical; settings: apparent Ki, Table II
Excerpt: The inhibition of the prolyl peptidyl cis-trans isomerase activity of FKBP may be measured as an indicator of this affinity. Inhibition of the peptidyl-prolyl isomerase (rotamase) activity of the compounds used in the inventive methods and pharmaceutical compositions can be evaluated by known methods described in the literature (Harding et al., Nature, 1989, 341:758-760; Holt et al. J. Am. Chem. Soc., 115:9923-9938). […] The cis-trans isomerization of an alanine-proline bond in a model substrate, N-succinyl-[…]-nitroanilide, is monitored spectrophotometrically in a chymotrypsin-coupled assay, which releases para-nitroanilide from the trans form of the substrate. The inhibition of this reaction caused by the addition of different concentrations of inhibitor is determined, and the data is analyzed as a change in first-order rate constant as a function of inhibitor concentration to yield the apparent Ki values. […] The absorbance at 390 nm versus time is monitored for 90 seconds using a spectrophotometer and the rate constants are determined from the absorbance versus time data files.

[1] = Clearance (Table E comments); assay type: in vitro ADME; settings: no method given
[2] = system: retinal ganglion cell axons; assay: Protection of retinal ganglion cell axons 14 days after optic nerve transection (Table E); assay type: in vivo; settings: ± SEM
Excerpt: Efficacy of representative compounds from different immunophilin ligand series in protecting retinal ganglion cell axons from degeneration following optic nerve transection is set forth in Table E.

[3] = system: retinal ganglion cells, optic nerve axons and myelin; assay: Retinal ischemia (intraocular pressure raised above arterial pressure), evaluation 28 days later; assay type: in vivo, rats
Excerpt: Retinal ganglion cells were retrogradely labeled in adult rats by bilateral injection of fluorogold in their lateral geniculate nuclei. Labeled ganglion cells in the normal rat retina appear as white profiles against the dark background (FIG. 1A). Complete retinal ischemia was produced by infusing normal saline solution into the retinal vitreous cavity of each eye until the intraocular pressure exceeded arterial blood pressure. 28 days after the ischemic episode extensive degeneration of retinal ganglion cell was evidenced by massive reduction in the density of fluorogold labeled cells (FIG. 1B).
Optic nerves from vehicle treated cases examined 28 days after a 1 hour retinal ischemic episode are characterized by a decreased density of optic nerve axons and the appearance of numerous degenerating myelin figures (bright white filled circles).

[4] = system: retinal ganglion cells and optic nerve axons; assay: Optic nerve transection, 14 or 28 day treatment, evaluation 90 days after transection; assay type: in vivo, Sprague Dawley rats; settings: 90 days after ONT; for increased ON axon density: adjusted for optic nerve diameter; for ON axon Count: axonal density multiplied by ON area; for Proximal optic nerve myelin basic protein Density, % recovery: ± SEM
Excerpt: All eyes and optic nerves stumps were removed.

aged impaired mice = assay: Morris watermaze, spatial learning and memory in aged rodents; assay type: in vivo, C57BL/6N-Nia mice; settings: 10 mg/kg daily
Excerpt: The Morris watermaze is widely used for assessing spatial memory formation and retention in experimental animals. The test depends on the animal's ability to utilize spatial visual information in order to locate a submerged escape platform in a water tank. It is important that the tank itself be as devoid of specific visual features as possible—thus, it is always circular in shape, the sides are kept smooth and in uniform dull colors, and the water is rendered opaque with nontoxic watercolor pigment or powdered milk. This is to ensure that the animal navigates only by the use of more distant visual cues, or by the use of intra-maze cues specifically provided by the experimenter. The animals' path, speed, and swim time are tracked with a ceiling camera for later computerized analysis. Over the course of several successive trials, spatial learning can therefore be defined as a drop of distance swum, or time elapsed, from placement in the tank until escape onto the invisible platform. The procedure involved using three-month old (young) and 18-19 month old male C57BL/6N-Nia (aged) mice which habituated to the well known and conventional Morris watermaze during a 4 trials/day, 3-4 day visible platform training phase. […] Swim Distances (cm) were analyzed in a 7×5 ANOVA including Groups and Blocks (1-5) as factors in the analysis, treating Blocks as a repeated measure.

[5] = system: retina (neovascularization, INL, GCL, ONL neurons); assay: Streptozotocin induced diabetes, retinal neovascularization and neuron loss; assay type: in vivo
[6] = system: retinal ganglion cells and their axons; assay: Example 18: optic nerve transection, 28 day GPI-1046, sacrifice at 90 days; assay type: in vivo, Sprague Dawley rats; settings: 10 mg/kg/day s.c. for 28 days; 90 days after transection
Excerpt: Transection of the mammalian optic nerve results in a brief period of abortive regeneration, but the majority of axotomized neurons die and the axons from many persisting ganglion cells die back beyond the optic nerve head.

[7] = system: streptozotocin-induced diabetic rat; assay: Streptozotocin-induced diabetic sensory neuropathy, hot plate and tail flick; assay type: in vivo, Male Wistar rats; settings: treated for 6 weeks at 10 mg/kg s.c., started six weeks after streptozotocin
Method: The procedure involved using Male Wistar rats which were given a single injection of streptozotocin (65 mg/kg i.v.). Blood glucose levels were determined weekly for the first three weeks and on the last week of the experiment. Animals were evaluated weekly for signs of sensory neuropathy using the conventional hot plate and tail flick apparatus test procedures.

[8] = 28 day treatment beginning 8 weeks after onset of streptozotocin diabetes

FKBP12, sequence (P62942 whole entry, species assumed): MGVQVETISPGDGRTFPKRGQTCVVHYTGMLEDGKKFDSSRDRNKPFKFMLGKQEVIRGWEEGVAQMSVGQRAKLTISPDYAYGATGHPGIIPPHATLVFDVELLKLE

Structure (SMILES): CCC(C)(C)NC(=O)N1CCC[C@H]1C(=O)OCCCc1cccnc1 [Compound 2, 3-(3-Pyridyl)-1-propyl (2S)-1-[(1′,1′-dimethylpropyl)carbamoyl]pyrrolidine-2-carboxylate]
Ki (FKBP12): 742 nM

Structure (SMILES): O=C(SCCCc1ccccc1)[C@@H]1CCCN1S(=O)(=O)Cc1ccccc1 [C]
Clearance [1]: 31.1 µL/min
RT97 + RGC axon density 14 days after ON transection (% ON axons rescued) [2]: 60.4% ± 3.1% SEM

Structure (SMILES): O=C(SCCCc1ccccc1)[C@@H]1CCCN1C(=O)NC12CC3CC(CC(C3)C1)C2 [B]
RT97 + RGC axon density 14 days after ON transection (% ON axons rescued) [2]: 100.0% ± 5.2% SEM

Clearance [1]: 1.5 µL/min
Structure (SMILES): CCC(C)(C)C(=O)C(=O)N1CCC[C@H]1C(=O)CCCCc1cccnc1 [J]
RT97 + RGC axon density 14 days after ON transection (% ON axons rescued) [2]: 15.8% ± 4.8% SEM

Structure (SMILES): O=C(OCCCc1cccnc1)[C@@H]1CCCN1C(=S)NC12CC3CC(CC(C3)C1)C2 [Compound 5, 3-(3-pyridyl)-1-propyl (2S)-1-[(1-adamantyl)thiocarbamoyl]-pyrrolidine-2-carboxylate]
Ki (FKBP12): 116 nM

Structure (SMILES): CCC(C)(C)C(=O)C(=O)N1CCCC[C@H]1C(N)=O [H]
RT97 + RGC axon density 14 days after ON transection (% ON axons rescued) [2]: 30.3% ± 8.0% SEM

Clearance [1]: 41.8 µL/min
Structure (SMILES): CCC(C)(C)C(=O)C(=O)N1CCCCC1C(=O)OC(CCc1ccccc1)CCc1ccccc1 (stereo not drawn) [E]

Structure (SMILES): O=C(OCCCc1cccnc1)[C@@H]1CCCN1C(=O)NC1CCCCC1 [Compound 4, 3-(3-pyridyl)-1-propyl (2S)-1-[(cyclohexyl)carbamoyl]-pyrrolidine-2-carboxylate]
Ki (FKBP12): 1480 nM

Clearance [1]: 4.5 µL/min
Structure (SMILES): CCC(C)(C)C(=O)C(=O)N1CCCC[C@H]1C(=O)SCCC(c1ccccc1)c1ccccc1 [Compound K]

Structure (SMILES): CCC(C)(C)C(=O)C(=O)N1CCC[C@H]1C(=O)SCCC(c1ccccc1)c1ccccc1 [M]
Clearance [1]: 12.5 µL/min
RT97 + RGC axon density 14 days after ON transection (% ON axons rescued) [2]: −6.3% ± 3.9% SEM

Structure (SMILES): CCC(C)(C)C(=O)C(=O)N1CCC[C@H]1C(=O)SCCCc1cccnc1 [GPI 1046]
Clearance [1]: 63.8 µL/min
protection of fluorogold labeled retinal ganglion cells ([3]; 10 mg/kg s.c. 1 hour prior to ischemia and 10 mg/kg/day for next four days, 28 days after ischemia): noticeable protection of a large proportion of the vulnerable ganglion cell population
density of degenerating myelin figures in optic nerve ([3]; 28 days after 1 hour retinal ischemic episode): dramatically decreased the density of degenerating myelin figures
% RGCs Rescued ([4]; 14 days GPI 1046): 5.3%
% surviving RGCs with ON axons ([4]; 14 days GPI 1046): 33.6%
ON head area (% sham) ([4]; 14 days GPI 1046): 76%
Spared RGC population ([4]; 14 days GPI 1046): 20,275
increased ON axon density ([4]; 14 days GPI 1046): 1.5×
ON axon Count ([4]; 14 days GPI 1046): 6820
Distal optic nerve myelin basic protein loss ([4]; 14 days GPI 1046, cross sectional area multiplied by myelin density): 47% loss
Distal optic nerve shrinkage ([4]; 14 days GPI 1046, cross sectional area vs sham): 33% shrinkage
ON Axon density ([4]; 14 days GPI 1046, mean ± SEM RT97 labeled axons in 200 μm × 200 μm region): 569 ± 23
Proximal optic nerve myelin basic protein Density, % recovery ([4]; 14 days GPI 1046, % areal coverage of cross section): 1.6 ± 3.0 SEM % recovery
RGC Counts ([4]; 28 days GPI 1046 10 mg/kg/day sc, mean density ± SEM of Fluoro-gold labeled RGC in 400 μm × 400 μm gridfields): 67.9 ± 5.8
% surviving RGCs with ON axons ([4]; 28 days GPI 1046): 81.4%
Distal optic nerve myelin preservation ([4]; 28 days GPI 1046): 99% myelin
ON head area (% sham) ([4]; 28 days GPI 1046): 95%*
Spared RGC population ([4]; 28 days GPI 1046): 28,096*
increased ON axon density ([4]; 28 days GPI 1046): 5.0×
ON axon Count ([4]; 28 days GPI 1046): 22,861*
Distal optic nerve, less shrinkage ([4]; 28 days GPI 1046, cross sectional area vs sham): 56% less shrinkage*
Proximal optic nerve myelin basic protein Density, % recovery ([4]; 28 days GPI 1046): 70 ± 6.3 SEM % recovery
density of myelin, distal stump ([4]; first 14 days GPI 1046): slightly increase the density of myelin
shrinkage of the distal stump ([4]; first 14 days GPI 1046): did not protect against shrinkage
protection of optic nerve axons ([4]; first 14 days GPI 1046, proximal stump): 5.3%
cross sectional shrinkage of the distal stump ([4]; first 28 days GPI 1046): prevented cross sectional shrinkage
fascicular staining pattern for myelin basic protein, proximal stump ([4]; first 28 days GPI 1046): dramatic preservation of the fascicular staining pattern
myelin levels, distal stump, % of normal levels ([4]; first 28 days GPI 1046): 99%
RT97 + RGC axon density 14 days after ON transection (% ON axons rescued) [2]: 60.5% ± 3.9 SEM
spatial memory performance, retention testing (swim distance), aged impaired GPI-1046 vs aged impaired vehicle (aged impaired mice; retention testing after 3 weeks of dosing, F1.69=8.11, P=0.006): significantly enhanced spatial memory performance
retention phase swim distance, young vs aged impaired GPI-1046 (aged impaired mice; F1.69=3.09, P=0.08): no longer any statistically significant difference
neovascularization in the PR, ONL, OPL and INL [5, 8]: reduced neovascularization
neuronal loss in the ONL [5, 8]: did not appear to protect against neuronal loss
loss of neurons in the INL and GCL ([5]; 28 day treatment beginning 8 weeks after onset, vs streptozotocin/vehicle controls): appeared to decrease the loss of neurons
axons in the proximal stump of the transected nerve (RT97) [6]: preserved the axons of virtually all protected neurons
ganglion cell population spared [6]: 25%
latency, hot plate and tail flick [7]: improvement in latency

Structure (SMILES): CCC(C)(C)C(=O)C(=O)N1CCCC[C@H]1C(=O)O [G]
RT97 + RGC axon density 14 days after ON transection (% ON axons rescued) [2]: 34.0% ± 4.8% SEM

Clearance [1]: 8.0 µL/min
Structure (SMILES): O=C(OCCCc1cccnc1)[C@@H]1CCCN1C(=S)NC1CCCCC1 [I]
RT97 + RGC axon density 14 days after ON transection (% ON axons rescued) [2]: 23.8% ± 5.3 SEM

Structure (SMILES): CCC(C)(C)C(=O)C(=O)N1CCC[C@H]1C(=O)O [L]
Clearance [1]: 5.2 µL/min
RT97 + RGC axon density 14 days after ON transection (% ON axons rescued) [2]: 7.8% ± 3.0% SEM

Structure (SMILES): CCC(C)CNC(=O)N1CCC[C@H]1C(=O)OCCCc1cccnc1 (stereo partly drawn) [Compound 1, 3-(3-pyridyl)-1-propyl (2S)-1-[(2-methylbutyl)carbamoyl]pyrrolidine-2-carboxylate]
Ki (FKBP12): 70 nM

Clearance [1]: 21.9 µL/min
Structure (SMILES): CN(C)C(=O)N1CCC[C@H]1C(=O)SCCCc1ccccc1 [N]

Reference: patent publication US6395758B1, “Small molecule carbamates or ureas for vision and memory disorders” (GPI Nil Holdings, Inc., priority 1998, dated 2002)
